Laboratory results as given in ChEMBL document CHEMBL1139448, “Synthesis and antibacterial activity of 7-(substituted)aminomethyl quinolones” (2004).
Values after ≈ are worked out from the molar mass of the structure shown.

What was measured:
Assay type in all cases: functional
[1] = test system: Staphylococcus epidermidis; assay: In vitro antibacterial activity against gram-positive Staphylococcus epidermidis
Klebsiella pneumoniae = assay: In vitro antibacterial activity against gram-negative Klebsiella pneumoniae
Shigella boydii = assay: In vitro antibacterial activity against gram-negative Shigella boydii
Streptococcus pneumoniae = assay: In vitro antibacterial activity against gram-positive Streptococcus pneumoniae
Staphylococcus aureus = assay: In vitro antibacterial activity against gram-positive Staphylococcus aureus
Citrobacter freundii = assay: In vitro antibacterial activity against gram-negative Citrobacter freundii

## O=C(O)c1cn(C2CC2)c2c(F)c(N3CCNCC3)c(F)cc2c1=O
[1]
  MIC: 0.39 µg/mL (≈ 1.12 µM)
Klebsiella pneumoniae
  MIC: 0.049 µg/mL (≈ 0.14 µM)
Shigella boydii
  MIC: 0.049 µg/mL (≈ 0.14 µM)
Streptococcus pneumoniae
  MIC: 0.049 µg/mL (≈ 0.14 µM)
Staphylococcus aureus
  MIC: 0.195 µg/mL (≈ 0.558 µM)
Citrobacter freundii
  MIC: 0.049 µg/mL (≈ 0.14 µM)

## Cl.O=C(O)c1cn(C2CC2)c2c(F)c(CNc3cccc(Cl)c3)c(F)cc2c1=O
Citrobacter freundii
  MIC: 1.56 µg/mL

## CN1CCN(Cc2c(F)cc3c(=O)c(C(=O)O)cn(C4CC4)c3c2F)CC1.Cl
Citrobacter freundii
  MIC: 1.56 µg/mL

## Cl.NCc1c(F)cc2c(=O)c(C(=O)O)cn(C3CC3)c2c1F
[1]
  MIC: 12.5 µg/mL
Klebsiella pneumoniae
  MIC: 0.098 µg/mL
Shigella boydii
  MIC: 0.098 µg/mL
Streptococcus pneumoniae
  MIC: 0.78 µg/mL
Staphylococcus aureus
  MIC: 12.5 µg/mL
Citrobacter freundii
  MIC: 0.098 µg/mL

## Cl.O=C(O)c1cn(C2CC2)c2c(F)c(CNC3CC3)c(F)cc2c1=O
Citrobacter freundii
  MIC: ≤ 0.049 µg/mL

## CCCNCc1c(F)cc2c(=O)c(C(=O)O)cn(C3CC3)c2c1F.Cl
Citrobacter freundii
  MIC: 0.195 µg/mL

## Cl.O=C(O)c1cn(C2CC2)c2c(F)c(CN3CCNCC3)c(F)cc2c1=O
Citrobacter freundii
  MIC: 0.195 µg/mL

## Cl.O=C(O)c1cn(C2CC2)c2c(F)c(CNc3ccc(F)cc3)c(F)cc2c1=O
Citrobacter freundii
  MIC: 0.39 µg/mL

## Cl.O=C(O)c1cn(C2CC2)c2c(F)c(CNc3ccc(F)c(Cl)c3)c(F)cc2c1=O
Citrobacter freundii
  MIC: 0.78 µg/mL

## Cc1ccc(NCc2c(F)cc3c(=O)c(C(=O)O)cn(C4CC4)c3c2F)cc1.Cl
Citrobacter freundii
  MIC: 0.78 µg/mL

## CC(C)NCc1c(F)cc2c(=O)c(C(=O)O)cn(C3CC3)c2c1F.Cl
[1]
  MIC: > 6.25 µg/mL
Klebsiella pneumoniae
  MIC: 0.098 µg/mL
Shigella boydii
  MIC: 0.195 µg/mL
Streptococcus pneumoniae
  MIC: 1.56 µg/mL
Staphylococcus aureus
  MIC: > 6.25 µg/mL
Citrobacter freundii
  MIC: 0.098 µg/mL

## CCNCc1c(F)cc2c(=O)c(C(=O)O)cn(C3CC3)c2c1F.Cl
Citrobacter freundii
  MIC: ≤ 0.049 µg/mL

## Cl.O=C(O)c1cn(C2CC2)c2c(F)c(CNc3ccc(Cl)cc3)c(F)cc2c1=O
Citrobacter freundii
  MIC: 1.56 µg/mL

## Cc1cc(C)nc(NCc2c(F)cc3c(=O)c(C(=O)O)cn(C4CC4)c3c2F)c1.Cl
Citrobacter freundii
  MIC: 0.78 µg/mL

## Cc1ccc(NCc2c(F)cc3c(=O)c(C(=O)O)cn(C4CC4)c3c2F)cc1C.Cl
Citrobacter freundii
  MIC: 1.56 µg/mL

## Cl.O=C(O)c1cn(C2CC2)c2c(F)c(CNc3ccccc3)c(F)cc2c1=O
Citrobacter freundii
  MIC: 0.39 µg/mL

## CCCCNCc1c(F)cc2c(=O)c(C(=O)O)cn(C3CC3)c2c1F.Cl
Citrobacter freundii
  MIC: 0.098 µg/mL

## CCn1cc(C(=O)O)c(=O)c2cc(F)c(N3CCNC(C)C3)c(F)c21 (centres undefined) [LOMEFLOXACIN]
[1]
  MIC: 0.78 µg/mL (≈ 2.22 µM)
Klebsiella pneumoniae
  MIC: 0.098 µg/mL (≈ 0.279 µM)
Shigella boydii
  MIC: 0.098 µg/mL (≈ 0.279 µM)
Streptococcus pneumoniae
  MIC: 0.195 µg/mL (≈ 0.555 µM)
Staphylococcus aureus
  MIC: 0.78 µg/mL (≈ 2.22 µM)
Citrobacter freundii
  MIC: 0.098 µg/mL (≈ 0.279 µM)

## CN[C@H](CC(C)C)C(=O)N[C@H]1C(=O)N[C@@H](CC(N)=O)C(=O)N[C@H]2C(=O)N[C@H]3C(=O)N[C@H](C(=O)N[C@H](C(=O)O)c4cc(O)cc(O)c4-c4cc3ccc4O)[C@H](O)c3ccc(c(Cl)c3)Oc3cc2cc(c3O[C@@H]2O[C@H](CO)[C@@H](O)[C@H](O)[C@H]2O[C@H]2C[C@](C)(N)[C@H](O)[C@H](C)O2)Oc2ccc(cc2Cl)[C@H]1O [VANCOMYCIN]
Citrobacter freundii
  MIC: > 6.25 µg/mL
